EPA's ToxValDB 9.5
≈ marks a conversion by molar mass, not a printed value. Where “and” joins values, the source holds several entries; their conditions need not be identical. Equal entries are not always repeated.

Tests used:
[1] = system: Rattus norvegicus
[2] = system: Mus musculus; conditions: for LD50: acute
[3] = system: Rattus norvegicus; conditions: for LOEL / NOEL: Hershberger; for LEL: uterotrophic, Active
[4] = chronic, duration: 103 weeks, oral, diet, F, Fischer 344
[5] = chronic, duration: 103 weeks, oral, diet, M, Fischer 344
[6] = developmental, duration: 10 days, oral, gavage, Crl:CD(SD)
[7] = subchronic, duration: 12 weeks, oral, diet, F, Fischer 344
[8] = subchronic, duration: 12 weeks, oral, diet, M, Fischer 344
[9] = chronic, duration: 103 weeks, oral, diet, B6C3F1
[10] = subchronic, duration: 12 weeks, oral, diet, M, B6C3F1
[11] = duration: 10 days, injection, subcutaneous, Sprague-Dawley, active + Androgenic + androgenic
[12] = duration: 10 days, oral, gavage, Wistar, active + Androgenic + androgenic
[13] = duration: 10 days, oral, gavage, wistar, active + Androgenic + androgenic
[14] = acute, oral, gavage, Sprague-Dawley
[15] = duration: 10 days, injection, subcutaneous, Fischer 344, active + Antiandrogenic + anti-androgenic
[16] = repeat dose other, inhalation, Fischer 344
[17] = chronic, duration: 91 days, oral, gavage
[18] = subchronic, duration: 6 weeks, oral, gavage, F, Osborne-Mendel
[19] = subchronic, duration: 6 weeks, oral, gavage, M, Osborne-Mendel
[20] = subchronic, duration: 6 weeks, oral, gavage, F, B6C3F1
[21] = subchronic, duration: 6 weeks, oral, gavage, M, B6C3F1

For `O=S(=O)([O-])c1ccc(N=Nc2c(O)ccc3cc(S(=O)(=O)[O-])ccc23)cc1.[Na+].[Na+]` [FD&C Yellow 6], the LD50 ([1]; acute, injection, intraperitoneal, Carworth) was 3800 mg/kg, the LD50 ([1]; acute, oral, Carworth) was over 10000 mg/kg and the LD50 ([1]; acute, oral, gavage, Wistar) was over 2000 mg/kg. It also gave an LOAEL [1, 4] of over 1950 mg/kg-day, an NOAEL [1, 4] of 1950 mg/kg-day and an LOAEL [1, 5] of 1950 mg/kg-day. For the same compound, the NOAEL [1, 5] was 975 mg/kg-day, the LOAEL [1, 6] was 300 mg/kg-day and the NOAEL [1, 6] was 100 mg/kg-day. It also gave an NOAEL ([1]; reproduction developmental, duration: 126 days, oral, diet, Charles River Albino CD (R), generation: F0) of 1500 mg/kg-day, an NOAEL ([1]; reproduction developmental, duration: 126 days, oral, diet, Charles River Albino CD (R), generation: F1) of 1500 mg/kg-day and an NOAEL ([1]; reproduction developmental, oral, diet, Crl:CD(SD)) of 500 mg/kg-day. The LOAEL [1, 7] was 1200 mg/kg-day, the NOAEL [1, 7] was 576 mg/kg-day and the LOAEL [1, 8] was 2400 mg/kg-day. For the same compound, the NOAEL [1, 8] was 1200 mg/kg-day, the LD50 ([2]; injection, intraperitoneal, ICI Alderley Park Strain) was ≥ 4600 mg/kg and ≤ 5500 mg/kg and the LD50 ([2]; oral, ICI Alderley Park Strain) was over 6000 mg/kg. For the same compound, the LOAEL [2, 9] was 4620 mg/kg-day, the NOAEL [2, 9] was 2310 mg/kg-day and the LOAEL [2, 10] was 19700 mg/kg-day. It also gave an NOAEL [2, 10] of 9850 mg/kg-day.
Compound `C[C@]12C=CC3=C4CCC(=O)C=C4CC[C@H]3[C@@H]1CC[C@@H]2O` [17beta-Trenbolone] has an LOEL [3, 11] of 200 mg/kg-day, an NOEL [3, 11] of 100 mg/kg-day and an LOEL ([3]; duration: 10 days, oral, gavage, Sprague-Dawley, androgenic) of 40 mg/kg-day. For the same compound, the LOEL [3, 12] was 40 mg/kg-day, the NOEL [3, 12] was 8 mg/kg-day and the LOEL [3, 13] was 40 mg/kg-day. For the same compound, the NOEL [3, 13] was 8 mg/kg-day.
`CCCCCCCCCCCCCCC1CO1` (configuration not stated) [1,2-Epoxyhexadecane] was tested, and the LD50 ([1]; acute, dermal, occlusive, Sprague-Dawley) was 2000 mg/kg, the LD50 [1, 14] was over 5000 mg/kg and the LOAEL ([1]; subchronic, duration: 90 days, dermal, Fischer 344) was 125 mg/kg-day. The LOAEL ([2]; subchronic, duration: 13 weeks, dermal, B6C3F1) was 125 mg/kg-day.
Compound `O=C(c1ccc(O)cc1)c1ccc(O)cc1O` [2,4,4'-Trihydroxybenzophenone] has an LOEL [3, 15] of 300 mg/kg-day and an NOEL [3, 15] of 100 mg/kg-day.
`NNS(=O)(=O)c1ccc(Oc2ccc(S(=O)(=O)NN)cc2)cc1` [4,4'-Oxybis(benzenesulfohydrazide)] showed an LD50 ([1]; acute, oral) of 2300 mg/kg, an LD50 ([1]; acute, oral, albino) of over 5200 mg/kg and an LOAEL ([1]; chronic, duration: 4 months, oral, gavage) of 36 mg/kg-day. The LD50 ([2]; injection, Intraperitoneal) was over 5000 mg/kg.
`Clc1ccc(Cl)c(C(Cl)(Cl)Cl)n1` [3,6-Dichloro-2-(trichloromethyl)pyridine] was tested, and the LD50 ([1]; acute, oral, gavage) was ≥ 1000 mg/kg and ≤ 2000 mg/kg, the LOAEL [1, 16] was 14.7 mg/m3 and the NOAEL [1, 16] was 3.47 mg/m3. The NOAEL ([2]; repeat dose other, inhalation, B6C3F1) was 3.47 mg/m3.
`CCN(CC)c1ccccc1` [N,N-Diethylaniline] was tested, and the LD50 ([1]; acute, dermal) was 5000 mg/kg, the LC50 ([1]; acute, inhalation) was 1.92 µg/mL (≈ 12.9 µM) and the LD50 ([1]; acute, oral) was 720 mg/kg. For the same compound, the LD50 ([1]; acute, oral, gavage, Wistar) was 606 mg/kg, the LOAEL ([1]; short-term, duration: 28 days, oral, gavage, Wistar) was 10 mg/kg-day and the LD50 ([2]; injection, Intraperitoneal) was 870 mg/kg.
With `Cc1cc(N=Nc2c(O)ccc3ccccc23)c(S(=O)(=O)[O-])cc1Cl.Cc1cc(N=Nc2c(O)ccc3ccccc23)c(S(=O)(=O)[O-])cc1Cl.[Ba+2]` [C.I. Pigment Red 53] the NOAEL [1, 17] was 25 mg/kg-day, the NOAEL ([1]; reproduction developmental, duration: 30 months, oral, gavage, F) was under 10000 ppm and the NOAEL ([1]; reproduction developmental, duration: 30 months, oral, gavage, generation: F0) was over 10000 ppm. It also gave an NOAEL ([1]; reproduction developmental, duration: 30 months, oral, gavage, generation: F1) of over 10000 ppm and an NOAEL [2, 17] of 90 mg/kg-day.
`Cl.N#Cc1ccc(C2CCCc3cncn32)cc1` (configuration not stated) gave an NOEL ([3]; duration: 7 days, oral, gavage, Wistar, inactive + Negative + anti-androgenic + high dose decreased body wt but no effect on PPS or AST) of 6 mg/kg-day.
`O=S1(=O)CC=CC1` [2,5-Dihydrothiophene 1,1-dioxide] gave an LD50 [1, 14] of 2880 mg/kg, an NOAEL ([1]; reproduction developmental, duration: 28 days, oral, gavage, Crj:CD, generation: F0) of 75 mg/kg-day and an NOAEL ([1]; reproduction developmental, duration: 28 days, oral, gavage, Crj:CD, generation: F1) of 25 mg/kg-day. The LOAEL [1, 18] was 178 mg/kg-day, the NOAEL [1, 18] was 100 mg/kg-day and the LOAEL [1, 19] was 562 mg/kg-day. The NOAEL [1, 19] was 316 mg/kg-day, the LOAEL [2, 20] was 316 mg/kg-day and the NOAEL [2, 20] was 178 mg/kg-day. It also gave an LOAEL [2, 21] of 1000 mg/kg-day and an NOAEL [2, 21] of 562 mg/kg-day.
Work on `C#C[C@]1(OC(=O)CC)C[C@@H]2CC[C@@H]3[C@H](CC[C@@]4(C)[C@H]3CC[C@]4(C#C)OC(=O)CC)[C@H]2C1` [Dinordrin II] yielded an LEL ([3]; duration: 3 days, oral) of 0.01 mg/day.
In the case of `CC(C)([CH2][Sn]([CH2]C(C)(C)c1ccccc1)([CH2]C(C)(C)c1ccccc1)[O][Sn]([CH2]C(C)(C)c1ccccc1)([CH2]C(C)(C)c1ccccc1)[CH2]C(C)(C)c1ccccc1)c1ccccc1` [Fenbutatin oxide], the LOEL ([3]; duration: 10 days, oral, gavage, wistar, active + Negative + Antiandrogenic + anti-androgenic + decrease in age of partial PPS at 10 / decrease in PPS wt and age at 75 with …) is reported as 10 mg/kg-day.
In the case of `O=c1cc(-c2ccc(O)cc2)oc2cc(O)cc(O)c12` [Apigenin], the LEL ([3]; duration: 7 days, oral) is reported as 5 mg/kg-day.
`O=C(c1ccccc1)c1ccccc1` [Benzophenone] showed an LEL ([3]; duration: 3 days, injection, intraperitoneal) of 300 mg/kg-day, an LEL ([3]; duration: 3 days, injection, subcutaneous) of 500 mg/kg-day and an LEL ([3]; duration: 3 days, oral) of 400 mg/kg-day.
